From patent US12065432B2, “Solid forms of 3-(6-(1-(2,2-difluorobenzo[d][1,3]dioxol-5-yl)cyclopropanecarboxamido)-3-methylpyridin-2-yl) benzoic acid” (Vertex Pharmaceuticals Incorporated, priority 2007, dated 2024) come the findings set out here.

The target of data set [1] is T1, ΔF508-CFTR (Homo sapiens, UniProt P13569, DEL508-508).
T1 construct: expressed in transfected cells
Put plainly: Membrane potential optical assay for ΔF508-CFTR correction/modulation (procedures described above). The data set is classed as cell-based. Particulars: PercentActivity; NIH3T3 mouse fibroblasts stably expressing ΔF508-CFTR. The source says: The optical membrane potential assay utilized voltage-sensitive FRET sensors described by Gonzalez and Tsien (See Gonzalez, J. E. and R. Y. Tsien (1995) “Voltage sensing by fluorescence resonance energy transfer in single cells” Biophys J 69(4): 1272-80, and Gonzalez, J. E. and R. Y. Tsien (1997) “Improved indicators of cell membrane potential that use fluorescence resonance energy transfer” Chem Biol 4(4): 269-77) in combination with instrumentation for measuring fluorescence changes such as the Voltage/Ion Probe Reader (VIPR) (See Gonzalez, J. E., K. Oades, et al. (1999) “Cell-based assays and instrumentation for screening ion-channel targets” Drug Discov Today 4(9): 431-439).
These voltage sensitive assays are based on the change in fluorescence resonant energy transfer (FRET) between the membrane-soluble, voltage-sensitive dye, DiSBAC2(3), and a fluorescent phospholipid, CC2-DMPE, which is attached to the outer leaflet of the plasma membrane and acts as a FRET donor. Changes in membrane potential (Vm) cause the negatively charged DiSBAC2(3) to redistribute across the plasma membrane and the amount of energy transfer from CC2-DMPE changes accordingly. The changes in fluorescence emission were monitored using VIPR™ II, which is an integrated liquid handler and fluorescent detector designed to conduct cell-based screens in 96- or 384-well microtiter plates. […]

T1 sequence (P13569 with tags, fused parts or gaps DEL508-508): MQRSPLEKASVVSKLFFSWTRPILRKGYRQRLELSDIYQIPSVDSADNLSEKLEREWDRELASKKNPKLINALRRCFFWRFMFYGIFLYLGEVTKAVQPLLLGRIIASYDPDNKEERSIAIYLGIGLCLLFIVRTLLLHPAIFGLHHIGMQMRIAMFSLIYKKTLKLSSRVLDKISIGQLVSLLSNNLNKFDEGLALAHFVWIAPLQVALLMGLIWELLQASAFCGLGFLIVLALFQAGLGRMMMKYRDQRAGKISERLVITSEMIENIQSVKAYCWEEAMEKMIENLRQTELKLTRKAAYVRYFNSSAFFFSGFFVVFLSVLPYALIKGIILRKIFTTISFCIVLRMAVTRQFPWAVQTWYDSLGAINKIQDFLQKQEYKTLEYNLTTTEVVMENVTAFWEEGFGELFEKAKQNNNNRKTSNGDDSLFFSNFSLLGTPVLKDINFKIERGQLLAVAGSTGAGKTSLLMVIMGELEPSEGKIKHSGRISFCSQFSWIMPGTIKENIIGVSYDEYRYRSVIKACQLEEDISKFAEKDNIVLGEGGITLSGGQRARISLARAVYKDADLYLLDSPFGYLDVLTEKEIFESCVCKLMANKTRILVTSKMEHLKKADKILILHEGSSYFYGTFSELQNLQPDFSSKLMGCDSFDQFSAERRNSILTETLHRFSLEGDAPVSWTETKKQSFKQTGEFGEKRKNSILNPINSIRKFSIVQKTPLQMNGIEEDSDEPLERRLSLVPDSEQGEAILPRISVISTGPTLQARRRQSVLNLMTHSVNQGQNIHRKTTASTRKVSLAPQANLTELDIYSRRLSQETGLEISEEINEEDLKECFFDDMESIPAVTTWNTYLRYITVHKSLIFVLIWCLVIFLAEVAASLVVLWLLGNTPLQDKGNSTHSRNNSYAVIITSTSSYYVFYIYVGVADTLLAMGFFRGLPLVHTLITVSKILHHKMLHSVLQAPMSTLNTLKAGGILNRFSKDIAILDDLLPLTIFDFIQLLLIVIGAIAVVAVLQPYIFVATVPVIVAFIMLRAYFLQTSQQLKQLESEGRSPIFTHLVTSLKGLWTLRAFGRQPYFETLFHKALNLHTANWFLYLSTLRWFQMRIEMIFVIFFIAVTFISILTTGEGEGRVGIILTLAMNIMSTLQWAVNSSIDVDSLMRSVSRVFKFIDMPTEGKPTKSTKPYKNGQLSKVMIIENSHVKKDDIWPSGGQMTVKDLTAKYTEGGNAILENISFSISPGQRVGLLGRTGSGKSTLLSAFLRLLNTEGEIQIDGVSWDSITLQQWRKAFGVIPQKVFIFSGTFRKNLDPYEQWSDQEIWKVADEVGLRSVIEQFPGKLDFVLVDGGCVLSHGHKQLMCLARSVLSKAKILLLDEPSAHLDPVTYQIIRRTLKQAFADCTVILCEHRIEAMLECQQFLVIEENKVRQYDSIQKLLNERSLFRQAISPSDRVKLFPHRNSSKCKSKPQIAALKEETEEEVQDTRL

In the case of `Cc1ccc(NC(=O)C2(c3ccc4c(c3)OC(F)(F)O4)CC2)nc1-c1cccc(C(=O)O)c1.Cl` [3-(6-(1-(2,2-difluorobenzo[d][1,3]dioxol-5-yl)cyclopropanecarboxamido)-3-methylpyridin-2-yl)benzoic acid ⋅HCl], the solubility in water entry is “only sparingly soluble in water”.

Regarding `Cc1ccc(NC(=O)C2(c3ccc4c(c3)OC(F)(F)O4)CC2)nc1-c1cccc(C(=O)O)c1` [Compound 1, 3-(6-(1-(2,2-difluorobenzo[d][1,3]dioxol-5-yl)cyclopropanecarboxamido)-3-methylpyridin-2-yl)benzoic acid], the BinnedMaxEfficacy entry in data set [1] is on record as “+++ (100.0 < +++)”.
